From patent US8952034B2, “Fused heterocyclic compounds as ion channel modulators” (Gilead Sciences, Inc., priority 2009, dated 2015)

These compounds were tested against wild-type human cardiac sodium channel, hNav1.5 (Homo sapiens, UniProt Q14524) (assay: Late INa screening assay (automated whole cell patch clamp, PatchXpress)). Settings: compound at 1 μM; HEK293 cells expressing hNav1.5; late INa generated with 10 μM Tefluthrin (or 50 nM ATX II); read-out: LateINa_1 uM (percent block of late INa).
wild-type human cardiac sodium channel, hNav1.5, sequence (Q14524 whole entry): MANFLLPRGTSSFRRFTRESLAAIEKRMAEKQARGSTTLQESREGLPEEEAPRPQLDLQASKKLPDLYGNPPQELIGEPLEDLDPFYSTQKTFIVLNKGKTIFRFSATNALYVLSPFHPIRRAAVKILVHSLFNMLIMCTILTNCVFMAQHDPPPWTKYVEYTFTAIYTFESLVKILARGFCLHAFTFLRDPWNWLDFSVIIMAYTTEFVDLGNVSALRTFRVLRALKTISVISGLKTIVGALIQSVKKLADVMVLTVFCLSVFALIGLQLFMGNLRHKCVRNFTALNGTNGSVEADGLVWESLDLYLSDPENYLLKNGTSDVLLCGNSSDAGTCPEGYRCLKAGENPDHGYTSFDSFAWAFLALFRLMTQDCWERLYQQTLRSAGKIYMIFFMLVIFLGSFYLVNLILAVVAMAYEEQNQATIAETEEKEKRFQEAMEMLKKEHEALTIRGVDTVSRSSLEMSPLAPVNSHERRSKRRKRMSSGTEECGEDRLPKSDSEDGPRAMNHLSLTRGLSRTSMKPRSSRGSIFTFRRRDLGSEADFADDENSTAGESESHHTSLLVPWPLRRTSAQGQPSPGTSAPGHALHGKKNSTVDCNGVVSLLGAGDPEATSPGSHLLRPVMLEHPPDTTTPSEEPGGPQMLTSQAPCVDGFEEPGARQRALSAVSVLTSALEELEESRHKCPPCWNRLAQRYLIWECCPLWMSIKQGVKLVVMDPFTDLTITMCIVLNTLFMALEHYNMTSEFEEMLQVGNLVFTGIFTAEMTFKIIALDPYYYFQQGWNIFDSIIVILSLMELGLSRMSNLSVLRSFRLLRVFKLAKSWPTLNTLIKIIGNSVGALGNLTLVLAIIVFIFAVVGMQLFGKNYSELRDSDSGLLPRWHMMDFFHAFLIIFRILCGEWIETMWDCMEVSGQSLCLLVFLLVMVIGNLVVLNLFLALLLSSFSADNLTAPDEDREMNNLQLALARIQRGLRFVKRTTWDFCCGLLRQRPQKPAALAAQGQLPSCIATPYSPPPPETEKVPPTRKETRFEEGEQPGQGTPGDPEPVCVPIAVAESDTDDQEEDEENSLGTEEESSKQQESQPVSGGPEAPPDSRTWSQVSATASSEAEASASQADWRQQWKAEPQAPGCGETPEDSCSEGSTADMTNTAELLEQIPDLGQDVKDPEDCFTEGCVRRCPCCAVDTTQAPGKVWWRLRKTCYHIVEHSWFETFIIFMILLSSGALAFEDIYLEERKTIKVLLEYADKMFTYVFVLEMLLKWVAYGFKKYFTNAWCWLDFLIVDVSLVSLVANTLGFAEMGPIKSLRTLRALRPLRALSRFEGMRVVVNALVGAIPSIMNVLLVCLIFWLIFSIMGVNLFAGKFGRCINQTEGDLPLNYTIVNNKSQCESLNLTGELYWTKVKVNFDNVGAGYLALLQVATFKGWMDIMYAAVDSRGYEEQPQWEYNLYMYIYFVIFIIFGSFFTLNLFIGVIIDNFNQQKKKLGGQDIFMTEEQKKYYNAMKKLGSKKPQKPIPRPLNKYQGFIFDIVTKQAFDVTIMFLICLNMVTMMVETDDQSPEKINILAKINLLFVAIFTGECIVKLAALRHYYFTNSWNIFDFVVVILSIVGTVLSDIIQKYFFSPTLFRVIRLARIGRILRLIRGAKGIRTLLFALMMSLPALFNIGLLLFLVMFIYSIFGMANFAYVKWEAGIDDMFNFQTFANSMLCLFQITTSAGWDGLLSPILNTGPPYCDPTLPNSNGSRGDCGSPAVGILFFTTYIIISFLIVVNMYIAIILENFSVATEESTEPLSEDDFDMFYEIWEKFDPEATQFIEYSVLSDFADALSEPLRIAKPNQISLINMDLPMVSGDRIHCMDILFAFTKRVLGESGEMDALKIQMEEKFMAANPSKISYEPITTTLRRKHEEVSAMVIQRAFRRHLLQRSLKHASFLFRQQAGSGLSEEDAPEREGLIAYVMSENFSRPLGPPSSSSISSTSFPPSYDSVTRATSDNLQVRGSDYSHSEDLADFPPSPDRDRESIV
Assay type: cell-based
Procedure, shortened: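 Late sodium current through wild-type human hNav1.5 stably expressed in HEK293 cells (no beta subunits) was recorded by automated whole-cell patch clamp on a PatchXpress 7000A at 24-27° C. Late INa was induced with 10 μM Tefluthrin or 50 nM ATX II. Cells were stepped from −120 mV to −20 mV for 250 ms at 0.1 Hz, and percent block was normalized to current in Na-free extracellular solution.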
FC(F)(F)Oc1ccc(-c2ccc3nnc(C(F)(F)COCc4cc(-c5ccc(Cl)cc5)no4)n3c2)cc1 [BHN-235, 3-(2-{[3-(4-chlorophenyl)-1,2-oxazol-5-yl]methoxy}-1,1-difluoroethyl)-6-[4-(trifluoromethoxy)phenyl][1,2,4]triazolo[4,3-a]pyridine] gave an inhibition at 1 µM of 41.5%. FC(F)(F)Oc1ccc(-c2ccc3nnc(C(F)(F)OCc4noc(-c5ccccc5)n4)n3c2)cc1 [BHN-323, 3-{difluoro[(5-phenyl-1,2,4-oxadiazol-3-yl)methoxy]methyl}-6-[4-(trifluoromethoxy)phenyl][1,2,4]triazolo[4,3-a]pyridine] gave an inhibition at 1 µM of 73%. Cn1nc(C2CC2)cc1COC(F)(F)c1nnc2ccc(-c3ccc(OC(F)(F)F)cc3)cn12 [BHN-266, 3-{[(3-cyclopropyl-1-methyl-1H-pyrazol-5-yl)methoxy](difluoro)methyl}-6-[4-(trifluoromethoxy)phenyl][1,2,4]triazolo[4,3-a]pyridine] showed an inhibition at 1 µM of 50.2%. For Cc1nn(-c2ccccc2)nc1COC(F)(F)c1nnc2ccc(-c3ccc(OC(F)(F)F)cc3)cn12 [BHN-300, 3-{difluoro[(5-methyl-2-phenyl-2H-1,2,3-triazol-4-yl)methoxy]methyl}-6-[4-(trifluoromethoxy)phenyl][1,2,4]triazolo[4,3-a]pyridine], the inhibition at 1 µM was 63%. With FC(F)(F)c1ncc2ccc(-c3ncco3)cn12 [BHN-183, 6-(1,3-oxazol-2-yl)-3-(trifluoromethyl)imidazo[1,5-a]pyridine] the inhibition at 1 µM was 19.5%. Cc1ccccc1Oc1nnc2ccc(-c3ccc(OC(F)(F)F)cc3)cn12 [BHN-273, 3-(2-methylphenoxy)-6-[4-(trifluoromethoxy)phenyl][1,2,4]triazolo[4,3-a]pyridine] gave an inhibition at 1 µM of 68.7%. Work on COc1cc(-c2ccc3nnc(C(F)(F)F)n3c2)cc(OC)c1OC [BHN-107, 3-(trifluoromethyl)-6-(3,4,5-trimethoxyphenyl)[1,2,4]triazolo[4,3-a]pyridine] yielded an inhibition at 1 µM of 16.5%. Compound CC(C)(O)C(F)(F)c1nnc2ccc(-c3ccc(OC(F)(F)F)cc3)cn12 [BHN-176, 1,1-difluoro-2-methyl-1-{6-[4-(trifluoromethoxy)phenyl][1,2,4]triazolo[4,3-a]pyridin-3-yl}propan-2-ol] has an inhibition at 1 µM of 15.2%. For FC(F)(F)Oc1ccc(-c2ccc3nnc(C(F)(F)OCc4cccc(-c5cccnc5)c4)n3c2)cc1 [BHN-306, 3-(difluoro{[3-(pyridin-3-yl)benzyl]oxy}methyl)-6-[4-(trifluoromethoxy)phenyl][1,2,4]triazolo[4,3-a]pyridine], the inhibition at 1 µM was 49.7%. In the case of FC(F)(F)c1nnc2ccc(-c3ccc(OCC4CC4)cc3)cn12 [BHN-151, 6-[4-(cyclopropylmethoxy)phenyl]-3-(trifluoromethyl)[1,2,4]triazolo[4,3-a]pyridine], the inhibition at 1 µM is reported as 43.1%. For Cn1nc(COC(F)(F)c2nnc3ccc(-c4ccc(OC(F)(F)F)cc4)cn23)c2ccccc21 [BHN-307, 3-{difluoro[(1-methyl-1H-indazol-3-yl)methoxy]methyl}-6-[4-(trifluoromethoxy)phenyl][1,2,4]triazolo[4,3-a]pyridine], the inhibition at 1 µM was 68.5%. For FC(F)(F)Oc1ccc(-c2ccc3nnc(C(F)(F)F)n3c2)c2ncccc12 [BHN-161, 5-(trifluoromethoxy)-8-[3-(trifluoromethyl)[1,2,4]triazolo[4,3-a]pyridin-6-yl]quinoline], the inhibition at 1 µM was 49.5%. With FC(F)(F)Oc1ccc(-c2ccc3nnc(C(F)(F)OCc4cccc(-c5ncccn5)c4)n3c2)cc1 [BHN-305, 3-(difluoro{[3-(pyrimidin-2-yl)benzyl]oxy}methyl)-6-[4-(trifluoromethoxy)phenyl][1,2,4]triazolo[4,3-a]pyridine] the inhibition at 1 µM was 59.6%. With COCCOc1cc(OC(F)(F)F)ccc1-c1ccc2nnc(C(F)(F)F)n2c1 [BHN-178, 6-[2-(2-methoxyethoxy)-4-(trifluoromethoxy)phenyl]-3-(trifluoromethyl)[1,2,4]triazolo[4,3-a]pyridine] the inhibition at 1 µM was 28.5%. Compound OCCOC(F)(F)c1nnc2ccc(-c3ccc(OC(F)(F)F)cc3)cn12 [BHN-157, 2-(difluoro{6-[4-(trifluoromethoxy)phenyl][1,2,4]triazolo[4,3-a]pyridin-3-yl}methoxy)ethanol] has an inhibition at 1 µM of 18.3%. Work on Fc1cc(-c2ccc3nnc(C(F)(F)F)n3c2)cc(F)c1Oc1ccccc1 [BHN-109, 6-(3,5-difluoro-4-phenoxyphenyl)-3-(trifluoromethyl)[1,2,4]triazolo[4,3-a]pyridine] yielded an inhibition at 1 µM of 61.8%. In the case of FC(F)(F)Oc1ccc(-c2ccc3nnc(C(F)(F)OCC4CC4(F)F)n3c2)cc1 (centres unmarked) [BHN-294, 3-{[(2,2-difluorocyclopropyl)methoxy](difluoro)methyl}-6-[4-(trifluoromethoxy)phenyl][1,2,4]triazolo[4,3-a]pyridine], the inhibition at 1 µM is reported as 77.6%. For FC(F)(F)c1nnc2ccc(-c3ccc(Oc4ccncc4)cc3)cn12 [BHN-113, 6-[4-(pyridin-4-yloxy)phenyl]-3-(trifluoromethyl)[1,2,4]triazolo[4,3-a]pyridine], the inhibition at 1 µM was 20.1%. c1ccc(Oc2ccc(-c3ccc4nnnn4c3)cc2)cc1 [BHN-97, 6-(4-phenoxyphenyl)tetrazolo[1,5-a]pyridine] showed an inhibition at 1 µM of 73.2%. With N#CC1(c2ccc(-c3ccc4nnc(C(F)(F)F)n4c3)cc2)CC1 [BHN-195, 1-{4-[3-(trifluoromethyl)[1,2,4]triazolo[4,3-a]pyridin-6-yl]phenyl}cyclopropanecarbonitrile] the inhibition at 1 µM was 47.3%. Work on CNC(=O)c1cc(-c2ccc3nnc(C(F)(F)F)n3c2)ccc1OC(F)(F)F [BHN-174, N-methyl-2-(trifluoromethoxy)-5-[3-(trifluoromethyl)[1,2,4]triazolo[4,3-a]pyridin-6-yl]benzamide] yielded an inhibition at 1 µM of 16%. FC(F)(F)c1nnc2ccc(-c3cccc(Oc4ccccc4)c3)cn12 [BHN-9, 6-(3-phenoxyphenyl)-3-(trifluoromethyl)[1,2,4]triazolo[4,3-a]pyridine] gave an inhibition at 1 µM of 29.6%. In the case of COc1cc(-c2ccc(OC(F)(F)F)cc2)cn2c(C(F)F)nnc12 [BHN-126, 3-(difluoromethyl)-8-methoxy-6-[4-(trifluoromethoxy)phenyl][1,2,4]triazolo[4,3-a]pyridine], the inhibition at 1 µM is reported as 26.9%.

Same assay, conditions: compound at 10 μM; HEK293 cells expressing hNav1.5; late INa generated with 10 μM Tefluthrin (or 50 nM ATX II); read-out: LateINa_10 uM (percent block of late INa)
Compound Fc1cc(-c2ccc3nnc(C(F)(F)F)n3c2)ccc1Cl [BHN-14, 6-(4-chloro-3-fluorophenyl)-3-(trifluoromethyl)[1,2,4]triazolo[4,3-a]pyridine] has an inhibition at 10 µM of 28.3%. In the case of CC(C)(C)c1nnc2ccc(-c3ccc(OCC(F)(F)F)cc3)nn12 [BHN-36, 3-tert-butyl-6-[4-(2,2,2-trifluoroethoxy)phenyl][1,2,4]triazolo[4,3-b]pyridazine], the inhibition at 10 µM is reported as 64.5%. With FC(F)(F)c1nnc2ccc(-c3ccc(-n4cncn4)cc3)cn12 [BHN-61, 6-[4-(1H-1,2,4-triazol-1-yl)phenyl]-3-(trifluoromethyl)[1,2,4]triazolo[4,3-a]pyridine] the inhibition at 10 µM was 23.5%. Work on Cc1cc(OC(F)(F)F)ccc1-c1cc(N)c2nnc(C)n2c1 [BHN-70, 3-methyl-6-[2-methyl-4-(trifluoromethoxy)phenyl][1,2,4]triazolo[4,3-a]pyridin-8-amine] yielded an inhibition at 10 µM of 40.4%. In the case of FC(F)(F)c1nnc2ccc(-c3ccc(Oc4ccccc4)cc3)nn12 [BHN-11, 6-(4-phenoxyphenyl)-3-(trifluoromethyl)[1,2,4]triazolo[4,3-b]pyridazine], the inhibition at 10 µM is reported as 44.7%. FC(F)(F)c1nnc2ccc(-c3cccc(Oc4ccccc4)c3)cn12 [BHN-9, 6-(3-phenoxyphenyl)-3-(trifluoromethyl)[1,2,4]triazolo[4,3-a]pyridine] showed an inhibition at 10 µM of 75.7%.
